Source: ChEMBL document CHEMBL2406964, “Caffeic acid phenethyl ester inhibits alpha-melanocyte stimulating hormone-induced melanin synthesis through suppressing transactivation activity of microphthalmia-associated transcription factor” (J Nat Prod, 2013)
The source made the active and inactive calls. No cut-off for these calls is given here.

Assays:
[1] = system: B16-F10; assay: Antimelanogenic activity in mouse B16F10 cells assessed as inhibition of alpha-MSH-induced melanin production at 1 to 2 uM after 72 hrs by spectrophotometry; format: functional, cell-based
[2] = biological target: T1, Tyrosinase (Mus musculus) (UniProt P11344); assay: Inhibition of tyrosinase in alpha-MSH-treated mouse B16F10 cells assessed as reduction in L-DOPA oxidase activity at 0.5 to 2 uM after 72 hrs; format: cell-based; conditions: B16-F10
T1 sequence (whole entry): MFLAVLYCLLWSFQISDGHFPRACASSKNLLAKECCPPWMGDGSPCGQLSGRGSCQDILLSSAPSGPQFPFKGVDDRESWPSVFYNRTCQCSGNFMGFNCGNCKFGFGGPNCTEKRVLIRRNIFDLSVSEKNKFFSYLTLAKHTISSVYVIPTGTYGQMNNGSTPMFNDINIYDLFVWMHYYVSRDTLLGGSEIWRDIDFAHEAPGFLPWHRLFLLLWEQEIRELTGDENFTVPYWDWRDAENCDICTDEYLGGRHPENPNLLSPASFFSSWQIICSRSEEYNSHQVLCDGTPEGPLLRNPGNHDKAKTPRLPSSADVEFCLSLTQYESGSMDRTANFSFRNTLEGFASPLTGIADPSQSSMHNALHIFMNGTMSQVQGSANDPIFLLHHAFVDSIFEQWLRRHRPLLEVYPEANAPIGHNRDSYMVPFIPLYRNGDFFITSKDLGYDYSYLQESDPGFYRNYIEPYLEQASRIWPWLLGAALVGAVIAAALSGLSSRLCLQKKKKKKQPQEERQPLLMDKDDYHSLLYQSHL

[3] = system: B16-F10; assay: Inhibition of CREB phosphorylation in alpha-MSH-induced mouse B16F10 cells at 1 uM after 30 mins to 2 hrs by Western blotting analysis; format: cell-based
[4] = biological target: T2, Microphthalmia-associated transcription factor (Mus musculus) (UniProt Q08874); assay: Inhibition of MITF in mouse B16F10 cells assessed as inhibition of alpha-MSH-induced tyrosinase protein expression after 48 hrs by Western blotting analysis; format: cell-based; conditions: B16-F10
T2 sequence (whole entry): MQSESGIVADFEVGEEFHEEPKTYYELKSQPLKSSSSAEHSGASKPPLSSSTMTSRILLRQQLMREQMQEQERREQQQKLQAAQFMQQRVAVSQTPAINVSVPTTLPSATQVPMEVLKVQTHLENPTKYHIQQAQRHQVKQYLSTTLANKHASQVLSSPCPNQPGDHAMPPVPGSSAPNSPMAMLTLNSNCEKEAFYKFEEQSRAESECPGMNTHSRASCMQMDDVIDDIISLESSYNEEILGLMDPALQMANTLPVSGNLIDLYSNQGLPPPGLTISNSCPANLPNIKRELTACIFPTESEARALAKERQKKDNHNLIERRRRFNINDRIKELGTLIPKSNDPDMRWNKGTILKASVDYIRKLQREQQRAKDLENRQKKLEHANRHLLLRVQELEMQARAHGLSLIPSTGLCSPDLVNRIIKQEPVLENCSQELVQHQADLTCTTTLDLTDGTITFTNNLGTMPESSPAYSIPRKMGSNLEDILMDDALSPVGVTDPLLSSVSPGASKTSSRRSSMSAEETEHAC

[5] = system: B16-F10; assay: Antimelanogenic activity in mouse B16F10 cells assessed as inhibition of alpha-MSH-induced intracellular melanin production after 72 hrs by spectrophotometry; format: functional, cell-based
[6] = system: B16-F10; assay: Antimelanogenic activity in mouse B16F10 cells assessed as inhibition of alpha-MSH-induced MITF mRNA expression at 1 uM after 30 mins to 2 hrs by RT-PCR analysis; format: functional, cell-based
[7] = system: B16-F10; assay: Antimelanogenic activity in mouse B16F10 cells assessed as inhibition of alpha-MSH-induced secreted melanin production after 72 hrs by spectrophotometry; format: functional, cell-based
[8] = biological target: T2, Microphthalmia-associated transcription factor (Mus musculus); assay: Inhibition of MITF in mouse B16F10 cells assessed as inhibition of alpha-MSH-induced TRP2 mRNA expression after 48 hrs by RT-PCR analysis; format: cell-based; conditions: B16-F10
[9] = biological target: RAC-alpha serine/threonine-protein kinase (Mus musculus) (UniProt P31750); assay: Inhibition of Akt phosphorylation in alpha-MSH-induced mouse B16F10 cells at 1 uM after 30 mins to 2 hrs by Western blotting analysis; format: cell-based; conditions: B16-F10
Sequence of RAC-alpha serine/threonine-protein kinase (Mus musculus) (P31750 whole entry): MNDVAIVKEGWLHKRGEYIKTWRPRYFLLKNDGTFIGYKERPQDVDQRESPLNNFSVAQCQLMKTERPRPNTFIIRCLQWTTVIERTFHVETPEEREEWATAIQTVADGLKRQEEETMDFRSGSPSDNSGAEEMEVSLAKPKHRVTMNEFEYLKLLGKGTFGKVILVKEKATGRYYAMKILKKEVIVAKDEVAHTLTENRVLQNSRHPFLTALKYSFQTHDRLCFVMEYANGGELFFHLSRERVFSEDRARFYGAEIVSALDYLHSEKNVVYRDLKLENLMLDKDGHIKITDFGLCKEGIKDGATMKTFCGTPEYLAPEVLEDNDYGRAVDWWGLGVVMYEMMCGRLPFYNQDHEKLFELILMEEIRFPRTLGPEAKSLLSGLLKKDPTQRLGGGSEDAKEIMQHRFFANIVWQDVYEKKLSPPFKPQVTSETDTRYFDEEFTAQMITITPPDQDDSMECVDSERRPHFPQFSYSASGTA

[10] = system: B16-F10; assay: Antimelanogenic activity in mouse B16F10 cells assessed as inhibition of alpha-MSH-induced MITF nuclear translocation at 1 uM after 30 mins to 2 hrs by Western blotting analysis; format: functional, cell-based
[11] = system: B16-F10; assay: Cytotoxicity against mouse B16F10 cells up to 2 uM after 72 hrs by MTT assay; format: cell-based; conditions: b16-f10, 72 h
[12] = biological target: T2, Microphthalmia-associated transcription factor (Mus musculus); assay: Inhibition of MITF in mouse B16F10 cells assessed as inhibition of alpha-MSH-induced TRP1 mRNA expression after 48 hrs by RT-PCR analysis; format: cell-based; conditions: B16-F10
[13] = system: B16-F10; assay: Antimelanogenic activity in mouse B16F10 cells assessed as inhibition of alpha-MSH-induced MITF protein expression at 1 uM after 30 mins to 2 hrs by Western blotting analysis; format: functional, cell-based
[14] = biological target: Glycogen synthase kinase-3 beta (Mus musculus) (UniProt Q9WV60); assay: Inhibition of GSK-3beta phosphorylation in alpha-MSH-induced mouse B16F10 cells at 1 uM after 30 mins to 2 hrs by Western blotting analysis; format: cell-based; conditions: B16-F10
Sequence of Glycogen synthase kinase-3 beta (Mus musculus) (Q9WV60 whole entry, looked up): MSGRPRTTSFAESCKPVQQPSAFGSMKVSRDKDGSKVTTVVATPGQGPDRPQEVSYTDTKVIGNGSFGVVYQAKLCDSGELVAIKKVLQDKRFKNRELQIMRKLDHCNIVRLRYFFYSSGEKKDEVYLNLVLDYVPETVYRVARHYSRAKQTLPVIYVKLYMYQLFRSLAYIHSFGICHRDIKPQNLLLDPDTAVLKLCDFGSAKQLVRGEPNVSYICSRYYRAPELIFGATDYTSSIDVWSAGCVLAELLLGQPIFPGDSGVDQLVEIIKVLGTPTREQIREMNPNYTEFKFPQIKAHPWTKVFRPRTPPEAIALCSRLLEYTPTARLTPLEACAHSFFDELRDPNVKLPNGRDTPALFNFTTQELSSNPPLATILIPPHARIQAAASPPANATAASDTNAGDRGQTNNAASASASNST

[15] = biological target: T2, Microphthalmia-associated transcription factor (Mus musculus); assay: Inhibition of MITF in mouse B16F10 cells assessed as inhibition of alpha-MSH-induced TRP2 protein expression after 48 hrs by Western blotting analysis; format: cell-based; conditions: B16-F10
[16] = biological target: T2, Microphthalmia-associated transcription factor (Mus musculus); assay: Inhibition of MITF binding to M-box region of tyrosinase promoter in alpha-MSH-induced mouse B16F10 cells at 1 uM after 24 hrs by Chromatin immunoprecipitation assay; format: cell-based; conditions: B16-F10
[17] = biological target: T2, Microphthalmia-associated transcription factor (Mus musculus); assay: Inhibition of MITF binding to M-box region of TRP-1 promoter in alpha-MSH-induced mouse B16F10 cells at 1 uM after 24 hrs by Chromatin immunoprecipitation assay; format: cell-based; conditions: B16-F10
[18] = biological target: T1, Tyrosinase (Mus musculus); assay: Inhibition of tyrosinase in alpha-MSH-treated mouse B16F10 cells up to 100 uM after 72 hrs by L-DOPA oxidase assay; format: cell-based; conditions: B16-F10
[19] = biological target: T2, Microphthalmia-associated transcription factor (Mus musculus); assay: Inhibition of MITF in mouse B16F10 cells assessed as inhibition of alpha-MSH-induced tyrosinase promoter activity after 24 hrs by luciferase reporter gene assay; format: cell-based; conditions: B16-F10
[20] = biological target: T2, Microphthalmia-associated transcription factor (Mus musculus); assay: Inhibition of MITF in mouse B16F10 cells assessed as inhibition of alpha-MSH-induced tyrosinase mRNA expression after 48 hrs by RT-PCR analysis; format: cell-based; conditions: B16-F10
[21] = biological target: T2, Microphthalmia-associated transcription factor (Mus musculus); assay: Inhibition of MITF in mouse B16F10 cells assessed as inhibition of alpha-MSH-induced TRP1 protein expression after 48 hrs by Western blotting analysis; format: cell-based; conditions: B16-F10
[22] = biological target: T2, Microphthalmia-associated transcription factor (Mus musculus); assay: Inhibition of MITF binding to M-box region of TRP-2 promoter in alpha-MSH-induced mouse B16F10 cells at 1 uM after 24 hrs by Chromatin immunoprecipitation assay; format: cell-based; conditions: B16-F10

`O=C(/C=C/c1ccccc1)OCCc1ccccc1` was tested, and the inhibition [1] was “inactive”.

`O=C(O)/C=C/c1ccc(O)c(O)c1` was tested, and the inhibition [1] was “inactive”.

For `OCCc1ccccc1`, the inhibition [1] was “inactive”.

In the case of `O=C(/C=C/c1ccc(O)c(O)c1)OCCc1ccccc1` [CAFFEIC ACID PHENETHYL ESTER], the inhibition [2] is reported as “Active”, the inhibition [3] is reported as “inactive” and the inhibition [4] is reported as “Dose-dependent effect”. For the same compound, the inhibition [5] was “Dose-dependent effect”, the inhibition [6] was “inactive” and the inhibition [7] was “Dose-dependent effect”. For the same compound, the inhibition [8] was “Dose-dependent effect”, the inhibition [9] was “inactive” and the inhibition [10] was “inactive”. The Activity [11] was “Non-toxic”, the inhibition [12] was “Dose-dependent effect” and the inhibition [13] was “inactive”. The inhibition [14] was “inactive”, the inhibition [15] was “Dose-dependent effect” and the inhibition [16] was “Active”. The inhibition [17] was “Active”, the inhibition [18] was “inactive” and the inhibition [19] was “Dose-dependent effect”. For the same compound, the inhibition [20] was “Dose-dependent effect”, the inhibition [21] was “Dose-dependent effect” and the inhibition [22] was “Active”.
